Laboratory results taken from US20060216295A1, “Methods of identifying therapeutic targets for the treatment of vulvovaginal atrophy” (Wyeth, priority 2005, published 2006).
Where two headings read alike, the source gives them in different places.

Tests used:
[1] = tested on: vaginal epithelium; type: in vivo, rat; conditions: for whether the compound mimics the action of 17β-estradiol in the vagina: ovariectomized rats treated intravaginally, Example 3; for effect on the rat vaginal epithelium, in words: ovariectomized rats; for histological change of the vaginal epithelial layer compared to vehicle: rats, intravaginal dosing, Example 2
Method: FIG. 4 represents H&E stained cross-sections of rat vagina after 5 days of intravaginal treatment with 100 nM betacellulin in 2% carbomer vehicle.
These histologic changes are the hallmark of a vaginal estrogenic response. Tables 2 and 3 detail the studies performed with mersalyl and betacellulin. The body of the table indicates the number of positive histological changes over the number of samples evaluated.
Table 4 includes the studies performed with the PHD/FIH non-specific inhibitor DMOG, whereas Table 5 is the studies performed with 2,4-DPD.
Table 6 includes the studies performed with the FIH specific inhibitor 3,4-dihydroxybenzoate (3,4-DHB), whereas Table 7 outlines the studies performed with N-oxalyl-D-alanine (NODA).

[2] = tested on: Betacellulin; assay: RNA expression analysis (Affymetrix RAE230A/B arrays) of vaginal vault of ovariectomized rats after 17β-estradiol; type: in vivo, rat; conditions: Betacellulin mRNA, single dose 20 μg/kg 17β-estradiol subcutaneously
From the text: RNA was harvested from the entire vaginal vault at each time point and was subjected to RNA expression analysis. Five micrograms of total RNA were used to generate biotin labeled cRNA using an oligo T7 primer in a reverse transcription reaction followed by in vitro transcription reaction with biotin labeled UTP and CTP. Ten micrograms of cRNA were fragmented and hybridized to RAE230A and RAE230B arrays (Affymetrix, Santa Clara, Calif.). Hybridized arrays were stained according to manufacturer's protocols on a Fluidics Station 450 and scanned on an Affymetrix scanner 3000. All array images were visually inspected for defects and quality. Signal values were determined using Gene Chip Operating System 1.0 (GCOS, Affymetrix). For each array, all probe sets were normalized to a mean signal intensity value of 100. The default GCOS statistical values were used for all analyses. Signal values and absolute detection calls were imported into Genesis 2.0 (GeneLogic, Gaithersburg, Md.) for analysis.
A gene was considered to be detectible if the mean expression in either the treated or untreated group was 50 signal units and the percentage of samples with a Present (P) call as determined by GCOS default settings was greater than or equal to 25%. A gene was considered to be regulated if the difference between the treated and untreated groups met the following criteria: (1) the gene had to be detected in at least 25% of the samples of at least one of the groups, (2) the fold change between was at least 1.7, and (3) the p-value based on a T-test had to be ≦0.01. Nine hundred fifty-nine qualifiers on the RAE230A array and 707 qualifiers on the RAE230B array met these conditions.
Based on the time course of response and the biological function associated with them, HIF1α and betacellulin were selected as candidate targets for treatment of vulvovaginal atrophy. These proteins were selected for further study because they were regulated by estradiol after 6 hours of treatment and thus can be expected to be at the top of the estrogenic signaling cascade.

[3] = tested on: vaginal epithelium; type: in vivo, rat; conditions: intravaginal; 50 nM 17β-estradiol, 10 nM recombinant mouse betacellulin, 1 μM Mersalyl; 2% carbomer vehicle
[4] = tested on: HIF1α transcription; conditions: cited from earlier work
[5] = tested on: HIF-regulated transcripts; conditions: in vitro; cited from earlier work

CCOC(=O)c1ccnc(C(=O)OCC)c1 [2,4-DPD, 2,4-pyridinedicarboxylic acid, diethyl ester]
number of positive histological responses/number of samples evaluated ([1]; OVX rat, 2,4-DPD 0.1 μM intravaginal, Study 2): 0/4 | number of positive histological responses/number of samples evaluated ([1]; OVX rat, 2,4-DPD 1 μM intravaginal, Study 2): 1/4 | number of positive histological responses/number of samples evaluated ([1]; OVX rat, 2,4-DPD 10 μM intravaginal, Study 1): 0/4 | number of positive histological responses/number of samples evaluated ([1]; OVX rat, 2,4-DPD 10 μM intravaginal, Study 2): 1/3 | number of positive histological responses/number of samples evaluated ([1]; OVX rat, 2,4-DPD 10 μM intravaginal, Study 3): 1/4 | whether the compound mimics the action of 17β-estradiol in the vagina [1]: variable results

O=C(O)c1ccc(O)c(O)c1 [3,4-DHB, 3,4-dihydroxybenzoate]
number of positive histological responses/number of samples evaluated ([1]; OVX rat, 3,4-DHB 10 μM intravaginal, Study 1): 1/4 | number of positive histological responses/number of samples evaluated ([1]; OVX rat, 3,4-DHB 100 μM intravaginal, Study 1): 0/4 | number of positive histological responses/number of samples evaluated ([1]; OVX rat, 3,4-DHB 1 mM intravaginal, Study 1): 0/4 | number of positive histological responses/number of samples evaluated ([1]; OVX rat, 3,4-DHB 1 mM intravaginal, Study 2): 0/4 | number of positive histological responses/number of samples evaluated ([1]; OVX rat, 3,4-DHB 1 mM intravaginal, Study 3): 0/3 | number of positive histological responses/number of samples evaluated ([1]; OVX rat, 3,4-DHB 10 mM intravaginal, Study 1): 4/4 | number of positive histological responses/number of samples evaluated ([1]; OVX rat, 3,4-DHB 10 mM intravaginal, Study 2): 1/4 | number of positive histological responses/number of samples evaluated ([1]; OVX rat, 3,4-DHB 10 mM intravaginal, Study 3): 2/3 | number of positive histological responses/number of samples evaluated ([1]; OVX rat, 3,4-DHB 10 mM intravaginal, Study 4): 1/3 | whether the compound mimics the action of 17β-estradiol in the vagina [1]: variable results

C[C@]12CC[C@@H]3c4ccc(O)cc4CC[C@H]3[C@@H]1CC[C@@H]2O [17β-estradiol]
Fold Change Over Vehicle ([2]; 6 hour): +2.9 | Fold Change Over Vehicle ([2]; 72 hour): +2.8 | Fold Change Over Vehicle ([2]; 120 hour (5 day)): +1.6 | histology of rat vagina (H&E stained cross-sections) compared to vehicle, FIG. 1 [3]: positive effect

COC(=O)CNC(=O)C(=O)OC [DMOG, N-(methoxyooxoacetyl)-glycine methyl ester]
number of positive histological responses/number of samples evaluated ([1]; OVX rat, DMOG 1 μM intravaginal, Study 2): 0/4 | number of positive histological responses/number of samples evaluated ([1]; OVX rat, DMOG 10 μM intravaginal, Study 1): 3/3 | number of positive histological responses/number of samples evaluated ([1]; OVX rat, DMOG 10 μM intravaginal, Study 2): 2/3 | number of positive histological responses/number of samples evaluated ([1]; OVX rat, DMOG 10 μM intravaginal, Study 3): 2/4 | number of positive histological responses/number of samples evaluated ([1]; OVX rat, DMOG 100 μM intravaginal, Study 1): 0/3 | number of positive histological responses/number of samples evaluated ([1]; OVX rat, DMOG 1 mM intravaginal, Study 1): 0/3 | number of positive histological responses/number of samples evaluated ([1]; OVX rat, DMOG 1 mM intravaginal, Study 3): 1/4 | whether the compound mimics the action of 17β-estradiol in the vagina [1]: variable results

COC(CNC(=O)c1ccccc1OCC(=O)O)[CH2][Hg][OH] (centres unmarked) [Mersalyl, mersalyl]
upregulation of HIF1α transcription [4]: upregulate HIF1α transcription | number of positive histological changes over the number of samples evaluated ([1]; Mersalyl dose 0.1 μM intravaginal, Study 2): 2/4 | number of positive histological changes over the number of samples evaluated ([1]; Mersalyl dose 0.1 μM intravaginal, Study 3): 4/4 | number of positive histological changes over the number of samples evaluated ([1]; Mersalyl dose 0.1 μM intravaginal, Study 4): 4/4 | number of positive histological changes over the number of samples evaluated ([1]; Mersalyl dose 1 μM intravaginal, Study 1): 3/3 | number of positive histological changes over the number of samples evaluated ([1]; Mersalyl dose 1 μM intravaginal, Study 2): 4/4/ | number of positive histological changes over the number of samples evaluated ([1]; Mersalyl dose 1 μM intravaginal, Study 3): 2/3 | number of positive histological changes over the number of samples evaluated ([1]; Mersalyl dose 1 μM intravaginal, Study 4): 4/4/ | number of positive histological changes over the number of samples evaluated ([1]; Mersalyl dose 10 μM intravaginal, Study 1): 0/3 | number of positive histological changes over the number of samples evaluated ([1]; Mersalyl dose 10 μM intravaginal, Study 2): 0/4 | number of positive histological changes over the number of samples evaluated ([1]; Mersalyl dose 100 μM intravaginal, Study 1): 0/3 | effect on the rat vaginal epithelium, in words [1]: expansion of the vaginal epithelium in a manner similar to treatment with 17β-estradiol | histological change of the vaginal epithelial layer compared to vehicle [1]: clear thickening and differentiation of the vaginal epithelial layer | histology of rat vagina (H&E stained cross-sections) compared to vehicle, FIG. 1 [3]: positive effect

C[C@@H](NC(=O)C(=O)O)C(=O)O [NODA, N-oxalyl-D-alanine]
number of positive histological responses/number of samples evaluated ([1]; OVX rat, NODA 10 μM intravaginal, Study 1): 1/4 | number of positive histological responses/number of samples evaluated ([1]; OVX rat, NODA 10 μM intravaginal, Study 2): 1/3 | number of positive histological responses/number of samples evaluated ([1]; OVX rat, NODA 10 μM intravaginal, Study 3): 0/3 | number of positive histological responses/number of samples evaluated ([1]; OVX rat, NODA 100 μM intravaginal, Study 1): 0/4 | number of positive histological responses/number of samples evaluated ([1]; OVX rat, NODA 100 μM intravaginal, Study 2): 0/3 | number of positive histological responses/number of samples evaluated ([1]; OVX rat, NODA 100 μM intravaginal, Study 3): 0/3 | number of positive histological responses/number of samples evaluated ([1]; OVX rat, NODA 1 mM intravaginal, Study 1): 0/4 | number of positive histological responses/number of samples evaluated ([1]; OVX rat, NODA 1 mM intravaginal, Study 2): 0/3 | number of positive histological responses/number of samples evaluated ([1]; OVX rat, NODA 1 mM intravaginal, Study 3): 1/3 | number of positive histological responses/number of samples evaluated ([1]; OVX rat, NODA 1 mM intravaginal, Study 4): 1/4 | number of positive histological responses/number of samples evaluated ([1]; OVX rat, NODA 10 mM intravaginal, Study 1): 3/4 | number of positive histological responses/number of samples evaluated ([1]; OVX rat, NODA 10 mM intravaginal, Study 2): 0/3 | number of positive histological responses/number of samples evaluated ([1]; OVX rat, NODA 10 mM intravaginal, Study 3): 1/3 | number of positive histological responses/number of samples evaluated ([1]; OVX rat, NODA 10 mM intravaginal, Study 4): 0/4 | whether the compound mimics the action of 17β-estradiol in the vagina [1]: variable results

CODDD: peptide corresponding to amino acids 549-582 of HIF1α (C-terminal oxygen dependent degradation domain), FIG. 3
upregulation of HIF-regulated transcripts [5]: capable of upregulating HIF-regulated transcripts in vitro

B1: NODDD: peptide corresponding to amino acids 343417 of HIF1α (N-terminal oxygen dependent degradation domain), FIG. 3 (peptide)
chain: SGIIQHDLIFSLQQTECVLKPVESSDMKMTQLFTKVESEDTSSLFDKLKKEPDALTLLAPAAGDTIISLDFGSND
modifications: NODDD sequence from Hif1a (amino acids 343-417)
upregulation of HIF-regulated transcripts [5]: capable of upregulating HIF-regulated transcripts in vitro

B2: Betacellulin: mouse betacellulin (Asp32-Gln118) generated in E. coli by R&D Systems (catalog # 1025-CE); member of the EGF family (protein)
chain: DGNTTRTPETNGSLCGAPGENCTGTTPRQKVKTHFSRCPKQYKHYCIHGRCRFVVDEQTPSCICEKGYFGARCERVDLFYLQQDRGQ
modifications: Mouse betacellulin peptide (asp32-gln118)
notes: mouse betacellulin (Asp32-Gln118) generated in E. coli by R&D Systems (catalog # 1025-CE); member of the EGF family
number of positive histological changes over the number of samples evaluated ([1]; Betacellulin dose 10 nM intravaginal, Study 1): 3/3 | number of positive histological changes over the number of samples evaluated ([1]; Betacellulin dose 10 nM intravaginal, Study 2): 0/4 | number of positive histological changes over the number of samples evaluated ([1]; Betacellulin dose 10 nM intravaginal, Study 3): 3/3 | number of positive histological changes over the number of samples evaluated ([1]; Betacellulin dose 100 nM intravaginal, Study 2): 3/4 | number of positive histological changes over the number of samples evaluated ([1]; Betacellulin dose 100 nM intravaginal, Study 3): 2/3 | number of positive histological changes over the number of samples evaluated ([1]; Betacellulin dose 1 μM intravaginal, Study 2): 2/4 | effect on the rat vaginal epithelium, in words [1]: mimics the effects of estrogen on the rat vaginal epithelium | histological change of the vaginal epithelial layer compared to vehicle [1]: clear thickening and differentiation of the vaginal epithelial layer | histology of rat vagina (H&E stained cross-sections) compared to vehicle, FIG. 1 [3]: positive effect
